Patent US20030232860A1, “Medicine comprising dicyanopyridine derivative” (priority 2000, published 2003)
Counter-ions that a name gives are not always drawn.

Row | melting point | SMILES
1 | > 300 °C | COc1nc(N)c(C#N)c(-c2ccc(CN)cc2)c1C#N.Cl
2 | 176 to 178 °C | COc1nc(N)c(C#N)c(C2CCCNC2)c1C#N (stereo not drawn)
3 | 277 to 278 °C | CSc1nc(N)c(C#N)c(-c2cccc(N)c2)c1C#N.Cl
4 | > 280 °C | Cl.Cl.N#Cc1c(NCCN)nc(NCCN)c(C#N)c1-c1ccccc1
5 | 285 to 288 °C (dec.) | Cl.Cl.N#Cc1c(N)nc(Sc2cccnc2)c(C#N)c1-c1cccc(N)c1
6 | 243 to 245 °C | CN(C)c1cccc(-c2c(C#N)c(N)nc(SCc3cccnc3)c2C#N)c1.Cl.Cl
7 | 156 to 158 °C | COc1nc(N(C(=O)Oc2ccccc2)C(=O)Oc2ccccc2)c(C#N)c(-c2ccccc2F)c1C#N
8 | 272 to 273 °C (dec.) | CSc1nc(N)c(C#N)c(-c2c[nH]cn2)c1C#N (as salt: HCl) (hydrate or solvate) [Example 82]
9 | 80 °C (dec.) | COc1nc(N)c(C#N)c(-c2ccnc(N)n2)c1C#N (as salt: HCl) (hydrate or solvate) [Example 174]
10 | 174 to 175 °C | N#Cc1c(N)nc(OCc2cccnc2)c(C#N)c1-c1ccccc1 (as salt: HCl) (hydrate or solvate) [Example 208, 2-amino-4-phenyl-6-(pyridin-3-ylmethoxy)pyridine-3,5-dicarbonitrile]
11 | 245 to 254 °C (dec.) | COc1nc(N)c(C#N)c(-c2ccc3cccnc3c2)c1C#N (as salt: HCl) [Example 172, 2-amino-6-methoxy-4-quinolin-7-ylpyridine-3,5-dicarbonitrile]
12 | 299 to 300 °C | COc1nc(N)c(C#N)c(-c2ccc3nc[nH]c3c2)c1C#N (as salt: HCl) [Example 173]
13 | > 300 °C | N#Cc1c(N)nc(Oc2ccccc2CN)c(C#N)c1-c1ccccc1 (as salt: HCl) [Example 201, 2-amino-6-(2-aminomethylphenoxy)-4-phenylpyridine-3,5-dicarbonitrile]
14 | 260 to 263 °C (dec.) | N#Cc1c(N)nc(N2CCNCC2)c(C#N)c1-c1ccccc1 (as salt: HCl) [Example 210]
15 | 240 to 242 °C (dec.) | COc1nc(N)c(C#N)c(-c2cnc(N)s2)c1C#N (as salt: chloride) [Example 67, 2-amino-4-(2-aminothiazol-5-yl)-6-methoxypyridine-3,5-dicarbonitrile mono hydro chloride]
16 | 240 °C (dec.) | COc1nc(N)c(C#N)c(C2CCNCC2)c1C#N (as salt: hydrochloride) (hydrate or solvate)
17 | 161 to 162 °C | N#Cc1c(N)nc(OCCOC(=O)[C@@H](N)Cc2ccccc2)c(C#N)c1-c1ccccc1 (as salt: hydrochloride) (hydrate or solvate) [Example 15, 2-[(2-amino-3,5-dicyano-4-phenylpyridin-6-yl)oxy]ethyl (S)-2-amino-3-phenylpropanoate monohydrochloride monohydrate]
18 | 270 to 272 °C | COc1nc(N)c(C#N)c(-c2ccc3cc[nH]c3c2)c1C#N (as salt: salt) (hydrate or solvate) [Example 171]
19 | 132 to 133 °C | CCN(CC)CCOc1ccc(-c2c(C#N)c(N)nc(OC)c2C#N)cc1.Cl (hydrate or solvate)
20 | 108 to 109 °C | COCC(=O)Nc1nc(OCC(F)F)c(C#N)c(-c2ccccc2F)c1C#N (hydrate or solvate) [Example 61, N-[3,5-dicyano-6-(2,2-difluoroethoxy)-4-(2-fluorophenyl)pyridin-2-yl]-2-metho xyacetamide]
21 | 251 to 252 °C | COc1nc(N)c(C#N)c(-c2ccccc2)c1C#N [Example 2]
22 | 241 to 243 °C | CSc1nc(N)c(C#N)c(-c2ccsc2)c1C#N [Example 7, 2-amino-6-methylsulfanyl-4-(3-thienyl)pyridine-3,5-dicarbonitrile]
23 | > 300 °C | N#Cc1c(N)nc(Cl)c(C#N)c1-c1ccccc1 [Example 9, 2-amino-6-chloro-4-phenylpyridine-3,5-dicarbonitrile]
24 | 212 to 214 °C | N#Cc1c(N)nc(OCCO)c(C#N)c1-c1ccccc1 [Example 13, 2-amino-6-(2-hydroxyethoxy)-4-phenylpyridine-3,5-dicarbonitrile]
25 | 161 to 162 °C | CC(C)Oc1nc(N)c(C#N)c(-c2ccccc2F)c1C#N [Example 18, 2-amino-4-(2-fluorophenyl)-6-isopropoxypyridine-3,5-dicarbonitrile]

Row | melting point | SMILES
26 | 230 to 233 °C | COc1nc(NC(C)=O)c(C#N)c(-c2cccs2)c1C#N [Example 19, N-(3,5-dicyano-6-methoxy-4-thiophen-2-ylpyridin-2-yl)acetamide]
27 | > 300 °C | N#Cc1c(N)nc(O)c(C#N)c1-c1ccc(N)cc1 [Example 21, 2-amino-(4-aminophenyl)-6-hydroxypyridine-3,5-dicarbonitrile]
28 | 245 °C (dec.) | CSc1nc(O)c(C#N)c(-c2cccs2)c1C#N [Example 23, 2-hydroxy-6-methylsulfanyl-4-thiophen-2-ylpyridine-3,5-dicarbonitrile]
29 | 169 to 171 °C | CSc1nc(Br)c(C#N)c(-c2cccs2)c1C#N [Example 24, 2-bromo-6-methylsulfanyl-4-thiophen-2-ylpyridine-3,5-dicarbonitrile]
30 | 255 to 257 °C (dec.) | COc1nc(O)c(C#N)c(-c2ccccc2)c1C#N [Example 25, 2-hydroxy-6-methoxy-4-phenylpyridine-3,5-dicarbonitrile]
31 | 148 to 149 °C | COc1ncc(C#N)c(-c2ccccc2)c1C#N [Example 26, 2-methoxy-4-phenylylpyridine-3,5-dicarbonitrile]
32 | 288 to 290 °C | CSc1nc(N)c(C#N)c(-c2ccc(C(=O)O)cc2)c1C#N [Example 29, 4-(2-amino-3,5-dicyano-6-methylsulfanylpyridin-4-yl)benzoic acid]
33 | 284 to 286 °C | N#Cc1c(N)nc(Oc2cccc(C(=O)O)c2)c(C#N)c1-c1ccccc1 [Example 31, 3-[(6-amino-3,5-dicyano-4-phenylpyridin-2-yl)oxy]benzoic acid]
34 | 170 to 172 °C | COc1nc(OCCO)c(C#N)c(-c2ccccc2)c1C#N [Example 33, 2-(2-hydroxyethoxy)-6-methoxy-4-phenylpyridine-3,5-dicarbonitrile]
35 | 218.5 to 219.5 °C | COc1nc(N)c(C#N)c(-c2cccc(CO)c2)c1C#N [Example 34, 2-amino-4-[3-(hydroxymethyl)phenyl]-6-methoxypyridine-3,5-dicarbonitrile]
36 | 265 to 266 °C | COc1nc(N)c(C#N)c(-c2ccc(NS(C)(=O)=O)cc2)c1C#N [Example 38, N-[4-(2-amino-3,5-dicyano-6-methoxypyridin-4-yl)phenyl]methanesulfonamide]
37 | > 300 °C | N#Cc1c(N)nc(N)c(C#N)c1-c1ccccc1 [Example 41, 2,6-diamino-4-phenylpyridine-3,5-dicarbonitrile]
38 | 156 to 158 °C | COc1nc(F)c(C#N)c(-c2ccccc2)c1C#N [Example 43, 2-fluoro-6-methoxy-4-phenylpyridine-3,5-dicarbonitrile]
39 | 233 to 235 °C | CS(=O)(=O)c1nc(N)c(C#N)c(-c2cccs2)c1C#N [Example 44, 2-amino-6-methanesulfonyl-4-thiophen-2-ylpyridine-3,5-dicarbonitrile]
40 | > 250 °C | CSc1nc(NS(C)(=O)=O)c(C#N)c(-c2ccsc2)c1C#N [Example 45, N-(3,5-dicyano-6-methylsulfanyl-4-thiophen-3-ylpyridin-2-yl)methanesulfonamide]
41 | 298 to 299 °C | COc1nc(N)c(C#N)c(-c2cccc(C#N)c2)c1C#N [Example 49, 2-amino-4-(3-cyanophenyl)-6-methoxypyridine-3,5-dicarbonitrile]
42 | 137 to 138 °C | COc1nc(N(C(C)=O)C(C)=O)c(C#N)c(-c2ccccc2F)c1C#N [Example 59, 2-diacetylamino-4-(2-fluorophenyl)-6-methoxypyridine-3,5-dicarbonitrile]
43 | 168 to 169 °C | COCC(=O)Nc1nc(OC)c(C#N)c(-c2ccccc2F)c1C#N [Example 60, N-[3,5-dicyano-4-(2-fluorophenyl)-6-methoxypyridin-2-yl]-2-methoxyacetamide]
44 | 181 to 182 °C | COCC(=O)Nc1nc(OC)c(C#N)c(-c2c(F)cccc2F)c1C#N [Example 62, N-[3,5-dicyano-4-(2,6-difluorophenyl)-6-methoxypyridin-2-yl]-2-methoxyacetamide]
45 | 200 to 201 °C | COc1nc(NC(C)=O)c(C#N)c(-c2c(F)cccc2F)c1C#N [Example 63, N-[3,5-dicyano-4-(2,6-difluorophenyl)-6-methoxypyridin-2-yl]acetamide]
46 | 235 to 237 °C | COc1nc(N)c(C#N)c(-c2cc[nH]c2)c1C#N [Example 66, 2-amino-6-methoxy-4-(1H-pyrrol-3-yl)pyridine-3,5-dicarbonitrile]
47 | 142 to 145 °C | COc1nc(NC(=O)C(F)(F)F)c(C#N)c(-c2ccccc2F)c1C#N [Example 69, N-[3,5-dicyano-4-(2-fluorophenyl)-6-methoxypyridin-2-yl]-2,2,2-trifluoroacetamide]
48 | 203 to 204 °C | COc1nc(NC(=O)C2CC2)c(C#N)c(-c2ccccc2F)c1C#N [Example 70, N-[3,5-dicyano-4-(2-fluorophenyl)-6-methoxypyridin-2-yl] cyclopropanecarboxamide]
49 | 82 to 86 °C | COc1nc(NC(=O)N(C)C)c(C#N)c(-c2ccccc2F)c1C#N [Example 71, 3-[3,5-dicyano-4-(2-fluorophenyl)-6-methoxypyridin-2-yl]-1,1-dimethylurea]
50 | 160 to 161 °C | CCC(=O)N(C(=O)CC)c1nc(OC)c(C#N)c(-c2ccccc2F)c1C#N [Example 73, 2-dipropanoylamino-4-(2-fluorophenyl)-6-methoxypyridine-3,5-dicarbonitrile]

Row | SMILES | melting point
51 | COc1nc(N)c(C#N)c(-c2ccc(N)cc2)c1C#N.Cl.O (hydrate or solvate) [Example 20, 2-amino-(4-aminophenyl)-6-methoxypyridine-3,5-dicarbonitrile monohydrochloride monohydrate] | > 300 °C
